# Laboratory results taken from ChEMBL document CHEMBL3885861, “Open TG-GATES”.
# Organism: Rattus norvegicus
# Assay: Open TG-GATES - Regimen: Daily Repeat
# Type: toxicity, organism-based, Sprague-Dawley
# Set-up: regimen Daily Repeat, gender Male, age 6 weeks
# Conditions: in vivo, po, 0 mg/kg, route gavage, dose level Control; for APTT / Bas / Eos / Fbg / Hb / Ht / Lym / MCH / MCHC / MCV / Mono / Neu / PT / Plat / RBC / Ret / WBC: tissue Blood; for KIDNEY_L / KIDNEY_R / KIDNEY_TOTAL: tissue Kidney; for LIVER: tissue Liver; for A/G / ALP / ALT / AST / BUN / CRE / Ca / Cl / DBIL / GLC / IP / K / LDH / Na / PL / RALB / TBIL / TC / TG / TP / gamma-GTP: tissue Plasma
compound,measurement,setting,value
CCOC(=O)C(C)(C)Oc1ccc(Cl)cc1 [CLOFIBRATE],TERMINAL_BW,"72 h, time 3 day",239.8 g
same,APTT,"72 h, time 3 day",20.7 s
same,Bas,"72 h, time 3 day",0%
same,Eos,"72 h, time 3 day",1%
same,Fbg,"72 h, time 3 day",221 mg/dL
same,Hb,"72 h, time 3 day",13.8 g/dL
same,Ht,"72 h, time 3 day",39.5%
same,Lym,"72 h, time 3 day",75%
same,MCH,"72 h, time 3 day",21.3 pg
same,MCHC,"72 h, time 3 day",34.9%
same,MCV,"72 h, time 3 day",61.1 fL
same,Mono,"72 h, time 3 day",3.2%
same,Neu,"72 h, time 3 day",20.2%
same,PT,"72 h, time 3 day",12.2 s
same,Plat,"72 h, time 3 day",124.2 x10_4/uL
same,RBC,"72 h, time 3 day",646.2 x10_4/ul
same,Ret,"72 h, time 3 day",5.4%
same,WBC,"72 h, time 3 day",98 x10_2/uL
same,KIDNEY_L,"72 h, time 3 day",1 g
same,KIDNEY_R,"72 h, time 3 day",1.1 g
same,KIDNEY_TOTAL,"72 h, time 3 day",2.1 g
same,LIVER,"72 h, time 3 day",12 g
same,A/G,"72 h, time 3 day",1.6
same,ALP,"72 h, time 3 day",881.8 IU/L
same,ALT,"72 h, time 3 day",37.4 IU/L
same,AST,"72 h, time 3 day",68 IU/L
same,BUN,"72 h, time 3 day",14 mg/dL
same,CRE,"72 h, time 3 day",0.4 mg/dL
same,Ca,"72 h, time 3 day",11.1 mg/dL
same,Cl,"72 h, time 3 day",102 meq/L
same,DBIL,"72 h, time 3 day",0.088 mg/dL
same,GLC,"72 h, time 3 day",194.2 mg/dL
same,IP,"72 h, time 3 day",7 mg/dL
same,K,"72 h, time 3 day",4.1 meq/L
same,LDH,"72 h, time 3 day",230.6 IU/L
same,Na,"72 h, time 3 day",140.6 meq/L
same,PL,"72 h, time 3 day",162.4 mg/dL
same,RALB,"72 h, time 3 day",3.5 g/dL
same,TBIL,"72 h, time 3 day",0.1 mg/dL
same,TC,"72 h, time 3 day",78 mg/dL
same,TG,"72 h, time 3 day",137.2 mg/dL
same,TP,"72 h, time 3 day",5.6 g/dL
same,gamma-GTP,"72 h, time 3 day",1.2 IU/L
same,TERMINAL_BW,"[…], time 7 day",268.6 g
same,TERMINAL_BW,"[…], time 14 day",332 g
same,TERMINAL_BW,"[…], time 28 day",392.8 g
same,APTT,"[…], time 7 day",20.7 s
same,Bas,"[…], time 7 day",0%
same,Eos,"[…], time 7 day",0.8%
same,Fbg,"[…], time 7 day",238 mg/dL
same,Hb,"[…], time 7 day",14.4 g/dL
same,Ht,"[…], time 7 day",41%
same,Lym,"[…], time 7 day",81.6%
same,MCH,"[…], time 7 day",21.4 pg
same,MCHC,"[…], time 7 day",35.2%
same,MCV,"[…], time 7 day",60.8 fL
same,Mono,"[…], time 7 day",2.6%
same,Neu,"[…], time 7 day",14.6%
same,PT,"[…], time 7 day",11.8 s
same,Plat,"[…], time 7 day",118.2 x10_4/uL
same,RBC,"[…], time 7 day",675.8 x10_4/ul
same,Ret,"[…], time 7 day",5.1%
same,WBC,"[…], time 7 day",104.1 x10_2/uL
same,APTT,"[…], time 14 day",19 s
same,Bas,"[…], time 14 day",0%
same,Eos,"[…], time 14 day",0.8%
same,Fbg,"[…], time 14 day",227.2 mg/dL
same,Hb,"[…], time 14 day",14.3 g/dL
same,Ht,"[…], time 14 day",41.2%
same,Lym,"[…], time 14 day",80.4%
same,MCH,"[…], time 14 day",20.3 pg
same,MCHC,"[…], time 14 day",34.6%
same,MCV,"[…], time 14 day",58.5 fL
same,Mono,"[…], time 14 day",3%
same,Neu,"[…], time 14 day",15%
same,PT,"[…], time 14 day",12.3 s
same,Plat,"[…], time 14 day",118.5 x10_4/uL
same,RBC,"[…], time 14 day",704.8 x10_4/ul
same,Ret,"[…], time 14 day",4.4%
same,WBC,"[…], time 14 day",137.8 x10_2/uL
same,APTT,"[…], time 28 day",21.1 s
same,Bas,"[…], time 28 day",0%
same,Eos,"[…], time 28 day",1%
same,Fbg,"[…], time 28 day",219.4 mg/dL
same,Hb,"[…], time 28 day",15.2 g/dL
same,Ht,"[…], time 28 day",43.2%
same,Lym,"[…], time 28 day",81.4%
same,MCH,"[…], time 28 day",19.3 pg
same,MCHC,"[…], time 28 day",35.3%
same,MCV,"[…], time 28 day",54.9 fL
same,Mono,"[…], time 28 day",2.6%
same,Neu,"[…], time 28 day",14.4%
same,PT,"[…], time 28 day",12 s
same,Plat,"[…], time 28 day",119.8 x10_4/uL
same,RBC,"[…], time 28 day",786.6 x10_4/ul
same,Ret,"[…], time 28 day",2.1%
same,WBC,"[…], time 28 day",108.2 x10_2/uL
same,KIDNEY_L,"[…], time 7 day",1.1 g
same,KIDNEY_R,"[…], time 7 day",1.1 g
same,KIDNEY_TOTAL,"[…], time 7 day",2.2 g
same,KIDNEY_L,"[…], time 14 day",1.3 g
same,KIDNEY_R,"[…], time 14 day",1.3 g
same,KIDNEY_TOTAL,"[…], time 14 day",2.6 g
same,KIDNEY_L,"[…], time 28 day",1.4 g
same,KIDNEY_R,"[…], time 28 day",1.4 g
same,KIDNEY_TOTAL,"[…], time 28 day",2.8 g
same,LIVER,"[…], time 7 day",12.5 g
same,LIVER,"[…], time 14 day",14.9 g
same,LIVER,"[…], time 28 day",16 g
same,A/G,"[…], time 7 day",1.6
same,ALP,"[…], time 7 day",994.8 IU/L
same,ALT,"[…], time 7 day",33.8 IU/L
same,AST,"[…], time 7 day",64.6 IU/L
same,BUN,"[…], time 7 day",16.6 mg/dL
same,CRE,"[…], time 7 day",0.4 mg/dL
same,Ca,"[…], time 7 day",10.5 mg/dL
same,Cl,"[…], time 7 day",102.2 meq/L
same,DBIL,"[…], time 7 day",0.098 mg/dL
same,GLC,"[…], time 7 day",213.2 mg/dL
same,IP,"[…], time 7 day",7.2 mg/dL
same,K,"[…], time 7 day",3.8 meq/L
same,LDH,"[…], time 7 day",192.2 IU/L
same,Na,"[…], time 7 day",138.8 meq/L
same,PL,"[…], time 7 day",144.8 mg/dL
same,RALB,"[…], time 7 day",3.6 g/dL
same,TBIL,"[…], time 7 day",0.2 mg/dL
same,TC,"[…], time 7 day",70.2 mg/dL
same,TG,"[…], time 7 day",122 mg/dL
same,TP,"[…], time 7 day",5.8 g/dL
same,gamma-GTP,"[…], time 7 day",0.6 IU/L
same,A/G,"[…], time 14 day",1.3
same,ALP,"[…], time 14 day",852.2 IU/L
same,ALT,"[…], time 14 day",37.4 IU/L
same,AST,"[…], time 14 day",62 IU/L
same,BUN,"[…], time 14 day",16.2 mg/dL
same,CRE,"[…], time 14 day",0.4 mg/dL
same,Ca,"[…], time 14 day",10.6 mg/dL
same,Cl,"[…], time 14 day",101 meq/L
same,DBIL,"[…], time 14 day",0.082 mg/dL
same,GLC,"[…], time 14 day",209.4 mg/dL
same,IP,"[…], time 14 day",7 mg/dL
same,K,"[…], time 14 day",3.8 meq/L
same,LDH,"[…], time 14 day",155 IU/L
same,Na,"[…], time 14 day",140.4 meq/L
same,PL,"[…], time 14 day",148 mg/dL
same,RALB,"[…], time 14 day",3.4 g/dL
same,TBIL,"[…], time 14 day",0.1 mg/dL
same,TC,"[…], time 14 day",74.2 mg/dL
same,TG,"[…], time 14 day",118.4 mg/dL
same,TP,"[…], time 14 day",5.9 g/dL
same,gamma-GTP,"[…], time 14 day",0.8 IU/L
same,A/G,"[…], time 28 day",1.4
same,ALP,"[…], time 28 day",622.2 IU/L
same,ALT,"[…], time 28 day",31.2 IU/L
same,AST,"[…], time 28 day",57.4 IU/L
same,BUN,"[…], time 28 day",15.2 mg/dL
same,CRE,"[…], time 28 day",0.4 mg/dL
same,Ca,"[…], time 28 day",10.4 mg/dL
same,Cl,"[…], time 28 day",102.6 meq/L
same,DBIL,"[…], time 28 day",0.08 mg/dL
same,GLC,"[…], time 28 day",207.2 mg/dL
same,IP,"[…], time 28 day",5.9 mg/dL
same,K,"[…], time 28 day",3.8 meq/L
same,LDH,"[…], time 28 day",154.6 IU/L
same,Na,"[…], time 28 day",140.8 meq/L
same,PL,"[…], time 28 day",145.6 mg/dL
same,RALB,"[…], time 28 day",3.5 g/dL
same,TBIL,"[…], time 28 day",0.1 mg/dL
same,TC,"[…], time 28 day",66.8 mg/dL
same,TG,"[…], time 28 day",124.4 mg/dL
same,TP,"[…], time 28 day",6.1 g/dL
same,gamma-GTP,"[…], time 28 day",0.8 IU/L
